Data: patent US8933070B2, “Methods of targeting PTEN mutant diseases and compositions therefor” (University Health Network, priority 2010, dated 2015)
Where two headings read alike, the source gives them in different places.

Experiments:
Aurora A = molecular target: T1, Aurora A (Homo sapiens, UniProt O14965); test: Aurora A inhibition assay (Z-Lyte); assay type: biochemical
T1 construct: purchased Invitrogen PV3612
T1 sequence (O14965 1-403): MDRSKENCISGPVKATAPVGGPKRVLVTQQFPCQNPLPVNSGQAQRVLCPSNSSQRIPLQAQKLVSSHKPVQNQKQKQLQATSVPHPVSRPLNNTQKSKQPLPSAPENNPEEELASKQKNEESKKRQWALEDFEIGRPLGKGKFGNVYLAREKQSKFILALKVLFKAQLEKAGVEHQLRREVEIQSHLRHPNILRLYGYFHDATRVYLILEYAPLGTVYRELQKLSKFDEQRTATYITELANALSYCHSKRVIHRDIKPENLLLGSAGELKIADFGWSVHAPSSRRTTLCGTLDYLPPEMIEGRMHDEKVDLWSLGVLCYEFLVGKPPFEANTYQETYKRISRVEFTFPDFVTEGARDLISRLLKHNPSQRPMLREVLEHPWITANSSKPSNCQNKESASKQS
Protocol: Aurora A inhibition was determined using the Z-Lyte assay kit from Invitrogen. The assay was performed using the recommended manufacturer's instructions with 20 nM ATP and 12 nM Aurora A (Invitrogen cat #PV3612). The % inhibition values were determined according to the manufacturer's directions and IC50 values were obtained using a non-linear 4 point logistic curve fit (XLfit4, IDBS)

IGF1R = IGF1R (Homo sapiens, UniProt P08069); test: Kinase selectivity assay (CEREP, HTRF); assay type: biochemical; conditions: read-out: % Inhibition at 10 μM Concentration
Protocol: (§1) The inhibitory activity of selected compounds was evaluated against a panel of 45 different kinase enzymes by CEREP, France. The assays were performed using standard HTRF assay methods as documented by CEREP against the human orthologues of Abl kinase, Akt1/PKBa, AMPKa, BMX kinase (Etk), Brk, CaMK2a, CaMK4, CDC2/CDK1 (cycB), CHK1, CHK2, c-Met kinase, CSK, EphB4 kinase, ERK1, ERK2 (P42mapk), FGFR2 kinase, FGFR4 kinase, FLT-1 kinase (VEGFR1), FLT-3 kinase, Fyn kinase, IGF1R kinase, IRK (InsR), JNK 2, KDR kinase (VEGFR2), Lck kinase, Lyn kinase, MAPKAPK2, MEK1/MAP2K1, p38a kinase, p38d kinase, p38g kinase, PDGFRb kinase, PDK1, PKA, PKCa, PKCb1, PKCb2, PKCg, Ret kinase, ROCK2, RSK2, Src kinase, Syk, and TRKA. The % Inhibition was determined by the formula; % Inhibition=100×(1−(experimental value−background value)/(high activity control−background value)).

PKCbeta 1 = PKCbeta 1 (Homo sapiens, UniProt P05771); test: Kinase selectivity assay (CEREP, HTRF); assay type: biochemical; conditions: read-out: % Inhibition at 10 μM Concentration
Protocol: as §1

[1] = tested on: HCC1954 basal breast cancer cell line; test: Cell growth inhibition, Sulforhodamine B (SRB) assay; assay type: cell-based; conditions: Homo sapiens
Protocol: Aliquots (20 μl) from each concentration were overlaid to 80 μl of the pre-seeded cells in the 96-plates to make final concentrations of 10 nM to 50 μM. The cells were cultured for 5 days before the Sulforhodamine B (SRB) assay was performed to determine the compound's cell growth inhibition activity.
Sulforhodamine B (Sigma, Canada) is a water-soluble dye that binds to the basic amino acids of cellular proteins. Thus, colorimetric measurement of the bound dye provides an estimate of the total protein mass that is related to the cell number. The cells are fixed in situ by gently aspirating off the culture media and adding 50 μl ice cold 10% Trichloroacetic Acid (TCA) per well and incubated at 4° C. for 30-60 min. The plates are washed with water five times and allowed to air dry for 5 min. Addition of 50 μl 0.4% (w/v) SRB solution in 1% (v/v) acetic acid to each well and incubatation for […] at RT completes the staining reaction. Following staining, plates are washed four times with 1% acetic acid to remove unbound dye and then allowed to air dry for 5 min. […] Absorbance is read at 570 nm.
The percentage (%) of relative growth inhibition was calculated by comparing to DMSO-treated only cells (100%). GI50's were determined for compounds with cytotoxic activity. The GI50 was calculated using GraphPad PRISM software (GraphPad Software, Inc., USA).
The SRB assay described above was used to assay test compounds against the extended panel (Table 6).

Akt1/PKBalpha = Akt1/PKBalpha (Homo sapiens, UniProt P31749); test: Kinase selectivity assay (CEREP, HTRF); assay type: biochemical; conditions: read-out: % Inhibition at 10 μM Concentration
Protocol: as §1

CDC2/CDK1 = CDC2/CDK1 (Homo sapiens, UniProt P06493); test: Kinase selectivity assay (CEREP, HTRF); assay type: biochemical; conditions: read-out: % Inhibition at 10 μM Concentration
Protocol: as §1

CHK1 = CHK1 (Homo sapiens, UniProt O14757); test: Kinase selectivity assay (CEREP, HTRF); assay type: biochemical; conditions: read-out: % Inhibition at 10 μM Concentration
Protocol: as §1

CSK = CSK (Homo sapiens, UniProt P41240); test: Kinase selectivity assay (CEREP, HTRF); assay type: biochemical; conditions: read-out: % Inhibition at 10 μM Concentration
Protocol: as §1

CaMK2alpha = CaMK2alpha (Homo sapiens, UniProt Q9UQM7); test: Kinase selectivity assay (CEREP, HTRF); assay type: biochemical; conditions: read-out: % Inhibition at 10 μM Concentration
Protocol: as §1

CaMK4 = CaMK4 (Homo sapiens, UniProt Q16566); test: Kinase selectivity assay (CEREP, HTRF); assay type: biochemical; conditions: read-out: % Inhibition at 10 μM Concentration
Protocol: as §1

Fyn = Fyn (Homo sapiens, UniProt P06241); test: Kinase selectivity assay (CEREP, HTRF); assay type: biochemical; conditions: read-out: % Inhibition at 10 μM Concentration
Protocol: as §1

MAPKAPK2 = MAPKAPK2 (Homo sapiens, UniProt P49137); test: Kinase selectivity assay (CEREP, HTRF); assay type: biochemical; conditions: read-out: % Inhibition at 10 μM Concentration
Protocol: as §1

PDK1 = PDK1 (Homo sapiens, UniProt O15530); test: Kinase selectivity assay (CEREP, HTRF); assay type: biochemical; conditions: read-out: % Inhibition at 10 μM Concentration
Protocol: as §1

PKA = PKA (Homo sapiens, UniProt P17612); test: Kinase selectivity assay (CEREP, HTRF); assay type: biochemical; conditions: read-out: % Inhibition at 10 μM Concentration
Protocol: as §1

PKCalpha = PKCalpha (Homo sapiens, UniProt P17252); test: Kinase selectivity assay (CEREP, HTRF); assay type: biochemical; conditions: read-out: % Inhibition at 10 μM Concentration
Protocol: as §1

PKCgamma = PKCgamma (Homo sapiens, UniProt P05129); test: Kinase selectivity assay (CEREP, HTRF); assay type: biochemical; conditions: read-out: % Inhibition at 10 μM Concentration
Protocol: as §1

RSK2 = RSK2 (Homo sapiens, UniProt P51812); test: Kinase selectivity assay (CEREP, HTRF); assay type: biochemical; conditions: read-out: % Inhibition at 10 μM Concentration
Protocol: as §1

Ret = Ret (Homo sapiens, UniProt P07949); test: Kinase selectivity assay (CEREP, HTRF); assay type: biochemical; conditions: read-out: % Inhibition at 10 μM Concentration
Protocol: as §1

Src = Src (Homo sapiens, UniProt P12931); test: Kinase selectivity assay (CEREP, HTRF); assay type: biochemical; conditions: read-out: % Inhibition at 10 μM Concentration
Protocol: as §1

p38alpha = p38alpha (Homo sapiens, UniProt Q16539); test: Kinase selectivity assay (CEREP, HTRF); assay type: biochemical; conditions: read-out: % Inhibition at 10 μM Concentration
Protocol: as §1

p38gamma = p38gamma (Homo sapiens, UniProt P53778); test: Kinase selectivity assay (CEREP, HTRF); assay type: biochemical; conditions: read-out: % Inhibition at 10 μM Concentration
Protocol: as §1

[2] = HCC1954, 120 h, read-out: Cell Line GI50 Range HCC1954

Sequence of PKCbeta 1 (P05771 whole entry): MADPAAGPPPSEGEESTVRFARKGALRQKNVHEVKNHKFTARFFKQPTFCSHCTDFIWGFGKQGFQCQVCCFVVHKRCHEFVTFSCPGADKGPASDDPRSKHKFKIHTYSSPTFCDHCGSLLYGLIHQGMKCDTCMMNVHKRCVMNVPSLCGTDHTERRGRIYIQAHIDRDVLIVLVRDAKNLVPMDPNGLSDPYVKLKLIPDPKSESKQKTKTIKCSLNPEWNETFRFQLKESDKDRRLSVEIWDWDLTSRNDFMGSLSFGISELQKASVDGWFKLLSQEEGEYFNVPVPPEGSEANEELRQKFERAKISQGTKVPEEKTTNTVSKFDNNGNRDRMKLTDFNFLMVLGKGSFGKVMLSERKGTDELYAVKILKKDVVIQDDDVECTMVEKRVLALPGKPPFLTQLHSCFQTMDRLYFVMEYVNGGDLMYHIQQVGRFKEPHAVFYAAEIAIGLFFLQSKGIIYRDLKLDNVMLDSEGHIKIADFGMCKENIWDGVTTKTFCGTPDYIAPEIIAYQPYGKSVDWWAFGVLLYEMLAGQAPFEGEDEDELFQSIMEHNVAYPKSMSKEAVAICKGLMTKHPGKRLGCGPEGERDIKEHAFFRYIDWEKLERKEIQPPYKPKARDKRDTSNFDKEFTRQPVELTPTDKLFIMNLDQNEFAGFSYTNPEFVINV
Sequence of IGF1R (P08069 31-1367): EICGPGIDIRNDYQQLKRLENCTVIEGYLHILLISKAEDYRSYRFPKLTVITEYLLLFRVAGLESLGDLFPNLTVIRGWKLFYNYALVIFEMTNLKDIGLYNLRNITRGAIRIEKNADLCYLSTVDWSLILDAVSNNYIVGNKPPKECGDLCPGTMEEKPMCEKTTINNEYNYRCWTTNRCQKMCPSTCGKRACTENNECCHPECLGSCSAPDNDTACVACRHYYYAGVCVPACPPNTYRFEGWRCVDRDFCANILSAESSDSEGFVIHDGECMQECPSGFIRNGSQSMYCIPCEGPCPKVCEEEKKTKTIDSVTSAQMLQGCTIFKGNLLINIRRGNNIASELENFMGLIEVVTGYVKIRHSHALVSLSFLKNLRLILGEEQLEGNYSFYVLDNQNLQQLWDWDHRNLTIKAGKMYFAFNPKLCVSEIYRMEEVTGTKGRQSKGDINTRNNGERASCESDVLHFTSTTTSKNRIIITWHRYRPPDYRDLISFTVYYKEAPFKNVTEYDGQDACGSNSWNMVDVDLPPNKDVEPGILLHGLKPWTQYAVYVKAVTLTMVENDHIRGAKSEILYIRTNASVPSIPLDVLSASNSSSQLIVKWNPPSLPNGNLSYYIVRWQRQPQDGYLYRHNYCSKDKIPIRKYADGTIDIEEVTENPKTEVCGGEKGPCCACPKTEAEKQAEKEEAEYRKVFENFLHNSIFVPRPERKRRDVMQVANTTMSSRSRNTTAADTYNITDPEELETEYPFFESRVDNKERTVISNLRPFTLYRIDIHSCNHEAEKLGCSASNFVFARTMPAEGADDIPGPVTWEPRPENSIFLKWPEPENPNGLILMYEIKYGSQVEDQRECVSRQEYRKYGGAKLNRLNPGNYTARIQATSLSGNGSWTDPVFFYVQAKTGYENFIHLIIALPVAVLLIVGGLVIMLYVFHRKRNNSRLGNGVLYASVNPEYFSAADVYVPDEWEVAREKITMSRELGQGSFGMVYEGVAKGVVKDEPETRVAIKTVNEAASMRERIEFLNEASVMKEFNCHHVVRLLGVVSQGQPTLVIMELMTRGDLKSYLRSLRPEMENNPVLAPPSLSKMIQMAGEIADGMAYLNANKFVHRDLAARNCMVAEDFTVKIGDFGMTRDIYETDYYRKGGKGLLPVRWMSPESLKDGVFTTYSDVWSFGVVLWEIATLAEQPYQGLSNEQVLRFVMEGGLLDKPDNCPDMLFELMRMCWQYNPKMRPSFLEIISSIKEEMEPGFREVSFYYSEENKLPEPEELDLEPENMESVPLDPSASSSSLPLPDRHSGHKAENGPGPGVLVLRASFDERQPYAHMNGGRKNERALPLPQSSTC
Sequence of MAPKAPK2 (P49137 whole entry): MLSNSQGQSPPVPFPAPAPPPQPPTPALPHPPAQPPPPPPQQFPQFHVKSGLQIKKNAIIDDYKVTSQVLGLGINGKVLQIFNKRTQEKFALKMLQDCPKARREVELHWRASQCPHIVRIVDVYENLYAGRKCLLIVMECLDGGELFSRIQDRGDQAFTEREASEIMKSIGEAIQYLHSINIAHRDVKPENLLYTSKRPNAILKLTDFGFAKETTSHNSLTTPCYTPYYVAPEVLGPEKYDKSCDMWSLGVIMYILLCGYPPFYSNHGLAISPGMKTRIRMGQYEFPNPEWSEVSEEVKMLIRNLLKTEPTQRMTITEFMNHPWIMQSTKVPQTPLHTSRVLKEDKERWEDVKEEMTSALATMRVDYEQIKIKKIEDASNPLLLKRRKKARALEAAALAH
Sequence of Fyn (P06241 whole entry): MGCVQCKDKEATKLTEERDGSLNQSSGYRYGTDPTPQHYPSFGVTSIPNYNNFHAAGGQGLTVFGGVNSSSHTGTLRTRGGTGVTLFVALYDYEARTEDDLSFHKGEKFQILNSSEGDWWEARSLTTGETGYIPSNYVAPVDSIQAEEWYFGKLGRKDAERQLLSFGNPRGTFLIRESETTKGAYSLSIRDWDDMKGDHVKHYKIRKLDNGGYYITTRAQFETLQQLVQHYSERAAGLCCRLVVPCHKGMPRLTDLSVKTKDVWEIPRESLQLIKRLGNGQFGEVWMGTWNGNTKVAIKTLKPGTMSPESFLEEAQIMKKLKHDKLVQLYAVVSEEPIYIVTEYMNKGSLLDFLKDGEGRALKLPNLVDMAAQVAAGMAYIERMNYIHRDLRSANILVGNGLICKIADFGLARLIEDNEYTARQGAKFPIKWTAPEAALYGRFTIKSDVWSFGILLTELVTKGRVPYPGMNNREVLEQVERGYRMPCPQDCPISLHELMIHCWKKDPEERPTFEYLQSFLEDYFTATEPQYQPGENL
Sequence of p38alpha (Q16539 whole entry): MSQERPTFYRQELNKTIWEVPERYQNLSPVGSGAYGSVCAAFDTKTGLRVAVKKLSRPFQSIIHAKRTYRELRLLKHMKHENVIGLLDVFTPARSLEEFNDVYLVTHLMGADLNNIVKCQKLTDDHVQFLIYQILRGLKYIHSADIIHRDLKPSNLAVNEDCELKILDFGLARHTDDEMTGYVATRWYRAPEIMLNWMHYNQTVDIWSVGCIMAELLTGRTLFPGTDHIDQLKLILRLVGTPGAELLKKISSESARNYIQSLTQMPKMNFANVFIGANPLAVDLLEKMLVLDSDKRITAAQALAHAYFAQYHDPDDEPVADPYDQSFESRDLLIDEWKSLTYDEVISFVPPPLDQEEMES
Sequence of CaMK2alpha (Q9UQM7 whole entry): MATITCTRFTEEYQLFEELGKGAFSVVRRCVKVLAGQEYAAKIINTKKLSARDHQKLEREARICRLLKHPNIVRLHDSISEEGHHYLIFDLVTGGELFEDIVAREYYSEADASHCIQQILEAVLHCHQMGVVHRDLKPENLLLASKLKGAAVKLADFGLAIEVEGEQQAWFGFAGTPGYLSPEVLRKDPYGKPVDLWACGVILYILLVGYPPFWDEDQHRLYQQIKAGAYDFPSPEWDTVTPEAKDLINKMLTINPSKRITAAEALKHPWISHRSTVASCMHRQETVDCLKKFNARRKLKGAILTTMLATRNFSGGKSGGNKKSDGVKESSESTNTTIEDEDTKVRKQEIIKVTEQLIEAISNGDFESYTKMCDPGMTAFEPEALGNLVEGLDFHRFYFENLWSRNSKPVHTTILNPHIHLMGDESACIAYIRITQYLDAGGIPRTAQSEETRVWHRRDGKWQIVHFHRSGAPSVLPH
Sequence of CaMK4 (Q16566 whole entry): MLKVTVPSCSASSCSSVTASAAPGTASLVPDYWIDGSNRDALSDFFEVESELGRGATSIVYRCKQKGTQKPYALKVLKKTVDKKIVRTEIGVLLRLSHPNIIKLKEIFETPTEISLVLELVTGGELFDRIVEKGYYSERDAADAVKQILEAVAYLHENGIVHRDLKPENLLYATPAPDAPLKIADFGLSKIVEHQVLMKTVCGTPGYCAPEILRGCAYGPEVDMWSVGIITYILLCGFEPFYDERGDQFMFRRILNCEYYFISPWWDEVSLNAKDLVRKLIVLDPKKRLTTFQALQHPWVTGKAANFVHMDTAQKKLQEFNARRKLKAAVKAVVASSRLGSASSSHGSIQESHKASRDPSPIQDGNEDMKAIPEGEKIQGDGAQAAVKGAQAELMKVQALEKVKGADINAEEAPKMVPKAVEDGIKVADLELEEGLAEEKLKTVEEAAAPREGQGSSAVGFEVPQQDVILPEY

Row | Compound | GI50 [1, 2] [µM] | inhibition at 10 µM (Akt1/PKBalpha) [%] | inhibition at 10 µM (CDC2/CDK1) [%] | inhibition at 10 µM (CHK1) [%] | inhibition at 10 µM (CSK) [%] | inhibition at 10 µM (CaMK2alpha) [%] | inhibition at 10 µM (CaMK4) [%] | inhibition at 10 µM (Fyn) [%] | inhibition at 10 µM (IGF1R; IGF1R, 10 μM) [%] | inhibition at 10 µM (MAPKAPK2) [%] | inhibition at 10 µM (PDK1) [%] | inhibition at 10 µM (PKA) [%] | inhibition at 10 µM (PKCalpha) [%] | inhibition at 10 µM (PKCbeta 1; PKCbeta 1, 10 μM) [%] | inhibition at 10 µM (PKCgamma) [%] | inhibition at 10 µM (RSK2) [%] | inhibition at 10 µM (Ret) [%] | inhibition at 10 µM (Src) [%] | inhibition at 10 µM (p38alpha) [%] | inhibition at 10 µM (p38gamma) [%] | other results
1 | COc1ccc2c(c1)[C@@]1(C[C@@H]1c1ccc3c(-c4ccc(N5CCN(C)CC5)nc4)n[nH]c3c1)C(=O)N2 (racemic) [Compound 2] | < 5 | – | – | – | – | – | – | – | – | – | – | – | – | – | – | – | – | – | – | – | inhibition at 10 µM (Aurora A; dose of 10 μM, read-out: Aurora A relative inhibition percentage): < 50%; inhibition at 10 µM (IGF1R): -3%; inhibition at 10 µM (PKCbeta 1): -2%
2 | COc1ccc2c(c1)/C(=C\c1ccc3c(/C=C/c4ccc(N5CCN(C)CC5)nc4)n[nH]c3c1)C(=O)N2 [Compound 3] | – | -5 | 11 | 0 | 6 | 2 | 6 | 4 | 5 | 6 | 5 | -5 | 7 | 1 | 3 | -4 | 33 | 26 | 22 | 12 | IC50 (Aurora A; read-out: IC50 Ranges Aurora A): < 5 µM; GI50 ([1]; HCC1954, read-out: GI50 Range HCC1954): < 5 µM
3 | CN(C)Cc1ccc(/C=C/c2n[nH]c3cc([C@H]4C[C@@]45C(=O)Nc4ccccc45)ccc23)cc1 (racemic) [Compound 35] | < 5 | -4 | 60 | 43 | 75 | 9 | -4 | 55 | 0 | 2 | 2 | -7 | 6 | -2 | 10 | 22 | 86 | 51 | -22 | -5 | –
